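Where inhibition never reached the appropriate level, the endpoint shown equals the highest concentration tested. Otherwise, values were interpolated linearly from a five-concentration, 48-hour dose response in 96-well plates. GI50 = concentration required for 50% inhibition of growth. TGI: total growth inhibition.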
What was measured:
Assay in all cases: NCI anticancer screen, dose series, 48 h
[1] = tested on: HCT-15 colon
[2] = tested on: HCC-2998 colon
[3] = tested on: PC-3 prostate
[4] = tested on: IGROV1 ovarian
[5] = tested on: OVCAR-4 ovarian
[6] = tested on: HL-60(TB) leukemia
[7] = tested on: OVCAR-3 ovarian
[8] = tested on: MDA-MB-231 breast
[9] = tested on: RXF 393 renal
[10] = tested on: EKVX NSCLC
[11] = tested on: SK-MEL-28 melanoma
[12] = tested on: BT-549 breast
[13] = tested on: SK-MEL-2 melanoma
[14] = tested on: CAKI-1 renal
[15] = tested on: HCT-116 colon
[16] = tested on: UACC-257 melanoma
[17] = tested on: ACHN renal
[18] = tested on: UACC-62 melanoma
[19] = tested on: LOX IMVI melanoma
[20] = tested on: OVCAR-8 ovarian
[21] = tested on: T-47D breast
[22] = tested on: NCI-H23 lung
[23] = tested on: SK-MEL-5 melanoma
[24] = tested on: OVCAR-5 ovarian
[25] = tested on: NCI-H460 lung
[26] = tested on: NCI-H522 lung
[27] = tested on: SF-268 CNS
[28] = tested on: A498 renal
[29] = tested on: HS 578T breast
[30] = tested on: SN12C renal
[31] = tested on: MCF7 breast
[32] = tested on: HOP-92 NSCLC
[33] = tested on: DU-145 prostate
[34] = tested on: NCI/ADR-RES ovarian
[35] = tested on: MALME-3M melanoma
[36] = tested on: SF-539 CNS
[37] = tested on: COLO 205 colon
[38] = tested on: SNB-75 CNS
[39] = tested on: MDA-MB-435
[40] = tested on: SNB-19 CNS
[41] = tested on: UO-31 renal
[42] = tested on: HT29 colon
[43] = tested on: 786-0 renal
[44] = tested on: A549 NSCLC
[45] = tested on: MOLT-4 leukemia
[46] = tested on: K-562 leukemia
[47] = tested on: SF-295 CNS
[48] = tested on: CCRF-CEM leukemia
[49] = tested on: NCI-H226 lung
[50] = tested on: RPMI-8226 leukemia
[51] = tested on: M14 melanoma
[52] = tested on: U251 CNS
[53] = tested on: TK-10 renal
[54] = tested on: SW-620 colon
[55] = tested on: KM12 colon
[56] = tested on: SK-OV-3 ovarian
[57] = tested on: HOP-62 NSCLC

Which results are given for `CCn1c(-c2nonc2N)nc2cnc(Oc3cccc(NC(=O)c4ccc(N(C)C)cc4)c3)cc21`?
GI50 [1]: 8.55 µM; TGI [1]: > 25 µM; GI50 [2]: > 25 µM; TGI [2]: > 25 µM; GI50 [3]: 12.4 µM; TGI [3]: > 25 µM; GI50 [4]: 22 µM; TGI [4]: > 25 µM; GI50 [5]: > 25 µM; TGI [5]: > 25 µM; GI50 [6]: > 25 µM; TGI [6]: > 25 µM; GI50 [7]: > 25 µM; TGI [7]: > 25 µM; GI50 [8]: > 17 µM; TGI [8]: > 25 µM; GI50 [9]: 16.9 µM; TGI [9]: > 25 µM; GI50 [10]: 2.87 µM; TGI [10]: > 25 µM; GI50 [11]: > 25 µM; TGI [11]: > 25 µM; GI50 [12]: 0.859 µM; TGI [12]: > 25 µM; GI50 [13]: > 25 µM; TGI [13]: > 25 µM; GI50 [14]: 0.688 µM; TGI [14]: > 25 µM; GI50 [15]: 11.3 µM; TGI [15]: > 25 µM; GI50 [16]: > 25 µM; TGI [16]: > 25 µM; GI50 [17]: > 25 µM; TGI [17]: > 25 µM; GI50 [18]: > 25 µM; TGI [18]: > 25 µM; GI50 [19]: > 25 µM; TGI [19]: > 25 µM; GI50 [20]: > 25 µM; TGI [20]: > 25 µM; GI50 [21]: 9.62 µM; TGI [21]: > 25 µM; GI50 [22]: > 25 µM; TGI [22]: > 25 µM; GI50 [23]: > 25 µM; TGI [23]: > 25 µM; GI50 [24]: > 25 µM; TGI [24]: > 25 µM; GI50 [25]: > 25 µM; TGI [25]: > 25 µM; GI50 [26]: > 13.8 µM; TGI [26]: > 25 µM; GI50 [27]: 2.48 µM; TGI [27]: > 25 µM; GI50 [28]: 4.48 µM; TGI [28]: > 25 µM; GI50 [29]: 0.0623 µM; TGI [29]: > 25 µM; GI50 [30]: > 25 µM; TGI [30]: > 25 µM; GI50 [31]: > 25 µM; TGI [31]: > 25 µM; GI50 [32]: 0.00447 µM; TGI [32]: > 25 µM; GI50 [33]: > 21.7 µM; TGI [33]: > 25 µM; GI50 [34]: > 25 µM; TGI [34]: > 25 µM; GI50 [35]: > 25 µM; TGI [35]: > 25 µM; GI50 [36]: 18.7 µM; TGI [36]: > 25 µM; GI50 [37]: > 13.5 µM; TGI [37]: > 25 µM; GI50 [38]: 0.106 µM; TGI [38]: > 25 µM; GI50 [39]: > 25 µM; TGI [39]: > 25 µM; GI50 [40]: > 25 µM; TGI [40]: > 25 µM; GI50 [41]: 0.0235 µM; TGI [41]: > 18.8 µM; GI50 [42]: > 25 µM; TGI [42]: > 25 µM; GI50 [43]: 21.6 µM; TGI [43]: > 25 µM; GI50 [44]: 2.12 µM; TGI [44]: > 25 µM; GI50 [45]: 13.6 µM; TGI [45]: > 25 µM; GI50 [46]: > 25 µM; TGI [46]: > 25 µM; GI50 [47]: 12 µM; TGI [47]: > 25 µM; GI50 [48]: 1.82 µM; TGI [48]: > 25 µM; GI50 [49]: > 25 µM; TGI [49]: > 25 µM; GI50 [50]: > 25 µM; TGI [50]: > 25 µM; GI50 [51]: > 25 µM; TGI [51]: > 25 µM; GI50 [52]: > 25 µM; TGI [52]: > 25 µM; GI50 [53]: 0.549 µM; TGI [53]: > 21 µM; GI50 [54]: > 25 µM; TGI [54]: > 25 µM; GI50 [55]: > 25 µM; TGI [55]: > 25 µM; GI50 [56]: > 13.7 µM; TGI [56]: > 25 µM; GI50 [57]: > 25 µM; TGI [57]: > 25 µM

Reference: PubChem BioAssay (NCI)
